Laboratory results taken from article PMC7071059, “Targeting Receptor Tyrosine Kinase VEGFR-2 in Hepatocellular Cancer: Rational Design, Synthesis and Biological Evaluation of 1,2-Disubstituted Benzimidazoles” (Molecules, 2020).

Experiments:
Assay in all cases: NCI 60 one dose (10 μM) anticancer assay
Format in all cases: cell-based
SNB-19 = conditions: Homo sapiens, 10 µM one dose, CNS Cancer, read-out: Growth Inhibition % SNB-19
Method: (§1) Some of the synthesized compounds were selected by the NCI, Bethesda, MD, USA for evaluation of their anticancer activity. An in vitro one dose (10 μM) anticancer assay was conducted on a full NCI 60-cell line panel derived from 9 different cancer types. Table 2 presents the percent of growth inhibition of some cell lines. […] K-562 and MOLT-4 from leukemia, NCI-H522 from non-small cell lung cancer, HCT-116 from colon cancer, SK-MEL-5 and UACC-62 from melanoma, UO-31 from renal cancer, PC-3 from prostate cancer and HS 578T and T-47D from breast cancer are the most sensitive cell lines to the tested compounds. No growth inhibition was observed from the selected compounds against COLO205, HCC-2998, MALME-3M, SK-MEL-28, DU-145 and BT-549 cell lines. […] Against UO-31 from renal cancer and PC-3 from prostate cancer, it inhibited the growth of 44% and 58% of the cancer cells, respectively.

EKVX = conditions: Homo sapiens, 10 µM one dose, Non-small cell lung Cancer, read-out: Growth Inhibition % EKVX
Method: as §1

HT29 = conditions: Homo sapiens, HT-29; 10 µM one dose; Colon Cancer; read-out: Growth Inhibition % HT29
Method: as §1

UO-31 = conditions: Homo sapiens, 10 µM one dose, Renal Cancer, read-out: Growth Inhibition % UO-31
Method: as §1

SF-268 = conditions: Homo sapiens, 10 µM one dose, CNS Cancer, read-out: Growth Inhibition % SF-268
Method: as §1

SR = conditions: Homo sapiens, 10 µM one dose, Leukemia, read-out: Growth Inhibition % SR
Method: as §1

NCI/ADR-RES = conditions: Homo sapiens, 10 µM one dose, Ovarian Cancer, read-out: Growth Inhibition % NCI/ADR-RES
Method: as §1

U251 = conditions: Homo sapiens, U-251; 10 µM one dose; CNS Cancer; read-out: Growth Inhibition % U251
Method: as §1

MDA-MB-468 = conditions: Homo sapiens, 10 µM one dose, Breast Cancer, read-out: Growth Inhibition % MDA-MB-468
Method: as §1

MDA-MB-231/ATTC = conditions: Homo sapiens, 10 µM one dose, Breast Cancer, read-out: Growth Inhibition % MDA-MB-231/ATTC
Method: as §1

A549/ATTC = conditions: Homo sapiens, 10 µM one dose, Non-small cell lung Cancer, read-out: Growth Inhibition % A549/ATTC
Method: as §1

KM12 = conditions: Homo sapiens, 10 µM one dose, Colon Cancer, read-out: Growth Inhibition % KM12
Method: as §1

NCI-H322M = conditions: Homo sapiens, 10 µM one dose, Non-small cell lung Cancer, read-out: Growth Inhibition % NCI-H322M
Method: as §1

LOX IMVI = conditions: Homo sapiens, 10 µM one dose, Melanoma, read-out: Growth Inhibition % LOX IMVI
Method: as §1

HL-60(TB) = conditions: Homo sapiens, 10 µM one dose, Leukemia, read-out: Growth Inhibition % HL-60(TB)
Method: as §1

MDA-MB-435 = conditions: Homo sapiens, 10 µM one dose, Melanoma, read-out: Growth Inhibition % MDA-MB-435
Method: as §1

TK-10 = conditions: Homo sapiens, 10 µM one dose, Renal Cancer, read-out: Growth Inhibition % TK-10
Method: as §1

BT-549 = conditions: Homo sapiens, 10 µM one dose, Breast Cancer, read-out: Growth Inhibition % BT-549
Method: as §1

MCF7 = conditions: Homo sapiens, 10 µM one dose, Breast Cancer, read-out: Growth Inhibition % MCF7
Method: as §1

T-47D = conditions: Homo sapiens, T47D; 10 µM one dose; Breast Cancer; read-out: Growth Inhibition % T-47D
Method: as §1

HS 578T = conditions: Homo sapiens, 10 µM one dose, Breast Cancer, read-out: Growth Inhibition % HS 578T
Method: as §1

M14 = conditions: Homo sapiens, 10 µM one dose, Melanoma, read-out: Growth Inhibition % M14
Method: as §1

OVCAR-4 = conditions: Homo sapiens, 10 µM one dose, Ovarian Cancer, read-out: Growth Inhibition % OVCAR-4
Method: as §1

K-562 = conditions: Homo sapiens, K562; 10 µM one dose; Leukemia; read-out: Growth Inhibition % K-562
Method: as §1

OVCAR-5 = conditions: Homo sapiens, 10 µM one dose, Ovarian Cancer, read-out: Growth Inhibition % OVCAR-5
Method: as §1

NCI-H522 = conditions: Homo sapiens, 10 µM one dose, Non-small cell lung Cancer, read-out: Growth Inhibition % NCI-H522
Method: as §1

HCT-116 = conditions: Homo sapiens, 10 µM one dose, Colon Cancer, read-out: Growth Inhibition % HCT-116
Method: as §1

NCI-H23 = conditions: Homo sapiens, 10 µM one dose, Non-small cell lung Cancer, read-out: Growth Inhibition % NCI-H23
Method: as §1

SK-MEL-5 = conditions: Homo sapiens, 10 µM one dose, Melanoma, read-out: Growth Inhibition % SK-MEL-5
Method: as §1

A498 = conditions: Homo sapiens, 10 µM one dose, Renal Cancer, read-out: Growth Inhibition % A498
Method: as §1

Row | SMILES | inhibition at 10 µM (SNB-19) [%] | inhibition at 10 µM (EKVX) [%] | inhibition at 10 µM (HT29) [%] | inhibition at 10 µM (UO-31) [%] | inhibition at 10 µM (SF-268) [%] | inhibition at 10 µM (SR) [%] | inhibition at 10 µM (NCI/ADR-RES) [%] | inhibition at 10 µM (U251) [%] | inhibition at 10 µM (MDA-MB-468) [%] | inhibition at 10 µM (MDA-MB-231/ATTC) [%] | inhibition at 10 µM (A549/ATTC) [%] | inhibition at 10 µM (KM12) [%] | inhibition at 10 µM (NCI-H322M) [%] | inhibition at 10 µM (LOX IMVI) [%] | inhibition at 10 µM (HL-60(TB)) [%] | inhibition at 10 µM (MDA-MB-435) [%] | inhibition at 10 µM (TK-10) [%] | inhibition at 10 µM (BT-549) [%] | inhibition at 10 µM (MCF7) [%] | inhibition at 10 µM (T-47D) [%] | other results
1 | COc1cc(/C=N/NC(=O)Cn2c(C(C)C)nc3ccccc32)ccc1OCc1ccccc1 [Compound 17e, (E)-N′-(4-(Benzyloxy)-3-methoxybenzylidene)-2-(2-isopropyl-1H-benzo[d]imidazol-1-yl)acetohydrazide] | < 10 | < 10 | < 10 | 20 | < 10 | < 10 | < 10 | < 10 | < 10 | < 10 | < 10 | < 10 | < 10 | < 10 | < 10 | < 10 | < 10 | < 10 | < 10 | 27 | inhibition at 10 µM (HS 578T): < 10%; inhibition at 10 µM (M14): < 10%; inhibition at 10 µM (OVCAR-4): < 10%; inhibition at 10 µM (K-562): 25%; inhibition at 10 µM (OVCAR-5): < 10%; inhibition at 10 µM (NCI-H522): 32%; inhibition at 10 µM (HCT-116): < 10%; inhibition at 10 µM (NCI-H23): < 10%; inhibition at 10 µM (SK-MEL-5): 17%; inhibition at 10 µM (A498): 22%
2 | COc1cc(/C=N/NC(=O)Cn2c(-c3ccc(C)o3)nc3ccccc32)ccc1OCc1ccccc1 [Compound 17f, (E)-N′-(4-(Benzyloxy)-3-methoxybenzylidene)-2-(2-(5-methylfuran-2-yl)-1H-benzo[d]imidazol-1-yl)acetohydrazide] | 20 | 25 | < 10 | 38 | 24 | 25 | < 10 | < 10 | 23 | 21 | 27 | 15 | < 10 | < 10 | < 10 | < 10 | < 10 | < 10 | 24 | 31 | inhibition at 10 µM (HS 578T): 30%; inhibition at 10 µM (M14): < 10%; inhibition at 10 µM (OVCAR-4): < 10%; inhibition at 10 µM (K-562): 34%; inhibition at 10 µM (OVCAR-5): < 10%; inhibition at 10 µM (NCI-H522): 26%; inhibition at 10 µM (HCT-116): 28%; inhibition at 10 µM (NCI-H23): < 10%; inhibition at 10 µM (SK-MEL-5): 23%; inhibition at 10 µM (A498): 21%
